# Measured values published in US12403166B2, “Labisia pumila extract composition and its pharmaceutical formulation” (MEDIKA NATURA SDN. BHD., priority 2021, dated 2025).
# Legend:
# [1] = test system: glutathione S-transferase (GST); conditions: DIO rats, 30 mg/kg, P≤0.05
# [2] = test system: glutathione peroxidase (GPx); assay: Glutathione peroxidase (GPx) in DIO rats (anti-oxidant); type: in vivo, rat; conditions: 30 mg/kg, P≤0.01
smiles,measurement,setting,value
CCCCCCCCCCC[C@@H](C[C@@H]1OC(=O)[C@H]1CCCCCC)OC(=O)[C@H](CC(C)C)NC=O [Orlistat],increase in GST as compared to DIO control group,[1],10.4%
same,increase in GPx as compared to DIO control group,[2],40.9%
